From PubChem BioAssay (NCI)
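In this assay, cells in 96-well plates receive the compound at five concentrations for 48 hours. Endpoints are linearly interpolated between the surrounding concentrations. The concentration for 50% growth inhibition is given as GI50. TGI: concentration producing complete growth inhibition.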

What was measured:
Assay in all cases: NCI tumour cell line growth inhibition, 48 h
UO-31 renal = tested on: UO-31 renal
RPMI-8226 leukemia = tested on: RPMI-8226 leukemia
U251 CNS = tested on: U251 CNS
MDA-MB-231 breast = tested on: MDA-MB-231 breast
TK-10 renal = tested on: TK-10 renal
HCC-2998 colon = tested on: HCC-2998 colon
NCI-H23 lung = tested on: NCI-H23 lung
ACHN renal = tested on: ACHN renal
COLO 205 colon = tested on: COLO 205 colon
SF-268 CNS = tested on: SF-268 CNS

In the case of Cc1cc(-c2ccco2)cc(C)c1/C=C/c1cncc(-c2nn[nH]n2)c1, the GI50 (UO-31 renal) is reported as greater than 25 µM, the TGI (UO-31 renal) is reported as greater than 25 µM and the GI50 (RPMI-8226 leukemia) is reported as greater than 25 µM. It also gave a TGI (RPMI-8226 leukemia) greater than 25 µM, a GI50 (U251 CNS) greater than 25 µM and a TGI (U251 CNS) greater than 25 µM. The GI50 (MDA-MB-231 breast) was greater than 25 µM, the TGI (MDA-MB-231 breast) was greater than 25 µM and the GI50 (TK-10 renal) was greater than 25 µM. It also gave a TGI (TK-10 renal) greater than 25 µM, a GI50 (HCC-2998 colon) greater than 25 µM and a TGI (HCC-2998 colon) greater than 25 µM. The GI50 (NCI-H23 lung) was greater than 25 µM, the TGI (NCI-H23 lung) was greater than 25 µM and the GI50 (ACHN renal) was greater than 25 µM. It also gave a TGI (ACHN renal) greater than 25 µM, a GI50 (COLO 205 colon) greater than 25 µM and a TGI (COLO 205 colon) greater than 25 µM. It also gave a GI50 (SF-268 CNS) greater than 25 µM and a TGI (SF-268 CNS) greater than 25 µM.

With O=C(Nc1nc2c(s1)CCc1c-2c(Br)n(Cc2ccccc2)c1Br)c1ccccc1 the GI50 (UO-31 renal) was 3.19 µM, the TGI (UO-31 renal) was 39.9 µM and the GI50 (RPMI-8226 leukemia) was 11.4 µM. For the same compound, the TGI (RPMI-8226 leukemia) was greater than 100 µM, the GI50 (U251 CNS) was 3.42 µM and the TGI (U251 CNS) was 11.3 µM. The GI50 (MDA-MB-231 breast) was 2.16 µM, the TGI (MDA-MB-231 breast) was 32.6 µM and the GI50 (TK-10 renal) was 2.98 µM. The TGI (TK-10 renal) was 7.85 µM, the GI50 (HCC-2998 colon) was greater than 100 µM and the TGI (HCC-2998 colon) was greater than 100 µM. For the same compound, the GI50 (NCI-H23 lung) was 8.03 µM, the TGI (NCI-H23 lung) was greater than 100 µM and the GI50 (ACHN renal) was 1.88 µM. The TGI (ACHN renal) was 7.35 µM, the GI50 (COLO 205 colon) was 8.05 µM and the TGI (COLO 205 colon) was greater than 100 µM. For the same compound, the GI50 (SF-268 CNS) was 6.03 µM and the TGI (SF-268 CNS) was greater than 100 µM.

O=[N+]([O-])c1ccc(/C=C\c2ccc3c(c2)OCO3)c([N+](=O)[O-])c1 gave a TGI (UO-31 renal) of 54.5 µM, a TGI (RPMI-8226 leukemia) of 19.2 µM and a TGI (U251 CNS) of 28.9 µM. The TGI (MDA-MB-231 breast) was 33.2 µM, the TGI (TK-10 renal) was 46.3 µM and the TGI (HCC-2998 colon) was 27.6 µM. The TGI (NCI-H23 lung) was 48.6 µM, the TGI (ACHN renal) was 33.6 µM and the TGI (COLO 205 colon) was 32.3 µM. The TGI (SF-268 CNS) was 58.5 µM.

CCOC(=O)c1cc2cc(OCc3ccccc3)ccc2[nH]1 was tested, and the GI50 (UO-31 renal) was greater than 100 µM, the TGI (UO-31 renal) was greater than 100 µM and the GI50 (RPMI-8226 leukemia) was greater than 100 µM. It also gave a TGI (RPMI-8226 leukemia) greater than 100 µM, a GI50 (U251 CNS) greater than 100 µM and a TGI (U251 CNS) greater than 100 µM. The GI50 (MDA-MB-231 breast) was 49.2 µM, the TGI (MDA-MB-231 breast) was greater than 100 µM and the GI50 (TK-10 renal) was greater than 100 µM. It also gave a TGI (TK-10 renal) greater than 100 µM, a GI50 (HCC-2998 colon) greater than 100 µM and a TGI (HCC-2998 colon) greater than 100 µM. The GI50 (NCI-H23 lung) was greater than 100 µM, the TGI (NCI-H23 lung) was greater than 100 µM and the GI50 (ACHN renal) was greater than 100 µM. It also gave a TGI (ACHN renal) greater than 100 µM, a GI50 (COLO 205 colon) greater than 100 µM and a TGI (COLO 205 colon) greater than 100 µM. The GI50 (SF-268 CNS) was greater than 100 µM and the TGI (SF-268 CNS) was greater than 100 µM.

With Nc1n[nH]c2ccc([C@@H]3Nc4c(F)cc5[nH]ncc5c4[C@H]4C5CCC(C5)[C@@H]34)cc12 (stereo not given in full) the GI50 (UO-31 renal) was 0.587 µM, the TGI (UO-31 renal) was greater than 52.6 µM and the GI50 (RPMI-8226 leukemia) was 0.472 µM. The TGI (RPMI-8226 leukemia) was 24.6 µM, the GI50 (U251 CNS) was 0.376 µM and the TGI (U251 CNS) was 17.3 µM. It also gave a GI50 (MDA-MB-231 breast) of 0.732 µM, a TGI (MDA-MB-231 breast) greater than 47 µM and a GI50 (TK-10 renal) of 5.6 µM. For the same compound, the TGI (TK-10 renal) was greater than 79.4 µM, the GI50 (HCC-2998 colon) was 0.39 µM and the TGI (HCC-2998 colon) was 22.2 µM. For the same compound, the GI50 (NCI-H23 lung) was 0.46 µM, the TGI (NCI-H23 lung) was 21.8 µM and the GI50 (ACHN renal) was 0.912 µM. It also gave a TGI (ACHN renal) greater than 64.7 µM, a GI50 (COLO 205 colon) of 0.337 µM and a TGI (COLO 205 colon) of 1.67 µM. It also gave a GI50 (SF-268 CNS) of 2.34 µM and a TGI (SF-268 CNS) greater than 47.5 µM.

For CCC1=C(c2ccc(OC)cc2)CC[C@]2(CCNC2=O)[C@@H]1C, the TGI (UO-31 renal) was 66.3 µM, the TGI (RPMI-8226 leukemia) was 45.7 µM and the TGI (U251 CNS) was 86.4 µM. It also gave a TGI (MDA-MB-231 breast) greater than 100 µM, a TGI (TK-10 renal) greater than 100 µM and a TGI (HCC-2998 colon) greater than 65.3 µM. It also gave a TGI (NCI-H23 lung) greater than 100 µM, a TGI (ACHN renal) of 66.8 µM and a TGI (COLO 205 colon) of 19.9 µM. The TGI (SF-268 CNS) was greater than 100 µM.

For Cc1cn2c(/C=C3/C(=O)Nc4ccc(C(=O)O)cc43)c(C)nc2s1, the GI50 (UO-31 renal) was greater than 100 µM, the TGI (UO-31 renal) was greater than 100 µM and the GI50 (RPMI-8226 leukemia) was greater than 100 µM. For the same compound, the TGI (RPMI-8226 leukemia) was greater than 100 µM, the GI50 (U251 CNS) was greater than 100 µM and the TGI (U251 CNS) was greater than 100 µM. For the same compound, the GI50 (MDA-MB-231 breast) was greater than 100 µM, the TGI (MDA-MB-231 breast) was greater than 100 µM and the GI50 (TK-10 renal) was greater than 100 µM. The TGI (TK-10 renal) was greater than 100 µM, the GI50 (HCC-2998 colon) was greater than 100 µM and the TGI (HCC-2998 colon) was greater than 100 µM. It also gave a GI50 (NCI-H23 lung) greater than 100 µM, a TGI (NCI-H23 lung) greater than 100 µM and a GI50 (ACHN renal) greater than 100 µM. It also gave a TGI (ACHN renal) greater than 100 µM, a GI50 (COLO 205 colon) greater than 100 µM and a TGI (COLO 205 colon) greater than 100 µM. For the same compound, the GI50 (SF-268 CNS) was greater than 100 µM and the TGI (SF-268 CNS) was greater than 100 µM.

In the case of Oc1ccc(-c2[nH]c3ccccc3c2-c2nc3ccccc3o2)cc1, the GI50 (UO-31 renal) is reported as 0.893 µM, the TGI (UO-31 renal) is reported as 13.9 µM and the GI50 (RPMI-8226 leukemia) is reported as 14.3 µM. The TGI (RPMI-8226 leukemia) was 52.3 µM, the GI50 (U251 CNS) was 2.86 µM and the TGI (U251 CNS) was 11.6 µM. The GI50 (MDA-MB-231 breast) was 1.47 µM, the TGI (MDA-MB-231 breast) was 5.64 µM and the GI50 (TK-10 renal) was 5.49 µM. The TGI (TK-10 renal) was 16.8 µM, the GI50 (HCC-2998 colon) was 2.66 µM and the TGI (HCC-2998 colon) was 7 µM. For the same compound, the GI50 (NCI-H23 lung) was 2.26 µM, the TGI (NCI-H23 lung) was 9.88 µM and the GI50 (ACHN renal) was 3.58 µM. For the same compound, the TGI (ACHN renal) was 14.9 µM, the GI50 (COLO 205 colon) was 3.54 µM and the TGI (COLO 205 colon) was 12.6 µM. It also gave a GI50 (SF-268 CNS) of 2.89 µM and a TGI (SF-268 CNS) of 12.9 µM.

For CC1=NN(c2nc(N)nc(/C=C\c3ccccc3)n2)C(C)(C)C1, the GI50 (UO-31 renal) was 13.5 µM, the TGI (UO-31 renal) was 28.5 µM and the GI50 (RPMI-8226 leukemia) was 3.02 µM. The TGI (RPMI-8226 leukemia) was 15 µM, the GI50 (U251 CNS) was 3.19 µM and the TGI (U251 CNS) was 28.9 µM. For the same compound, the GI50 (MDA-MB-231 breast) was 6.46 µM, the TGI (MDA-MB-231 breast) was 22.5 µM and the GI50 (TK-10 renal) was 7.76 µM. It also gave a TGI (TK-10 renal) of 22.2 µM, a GI50 (HCC-2998 colon) of 11.9 µM and a TGI (HCC-2998 colon) of 26.1 µM. It also gave a GI50 (NCI-H23 lung) of 4.37 µM, a TGI (NCI-H23 lung) of 18 µM and a GI50 (ACHN renal) of 9.46 µM. The TGI (ACHN renal) was 28.4 µM, the GI50 (COLO 205 colon) was 2.84 µM and the TGI (COLO 205 colon) was 14 µM. The GI50 (SF-268 CNS) was 6.1 µM and the TGI (SF-268 CNS) was 24.4 µM.

CCN(CC)CCS(=O)(=O)CCNc1ccnc2cc(Cl)ccc12 gave a GI50 (UO-31 renal) of 0.682 µM, a TGI (UO-31 renal) of 8.8 µM and a GI50 (RPMI-8226 leukemia) of 1.41 µM. It also gave a TGI (RPMI-8226 leukemia) of 21.6 µM, a GI50 (U251 CNS) of 3.17 µM and a TGI (U251 CNS) of 13.9 µM. The GI50 (MDA-MB-231 breast) was 3.1 µM, the TGI (MDA-MB-231 breast) was greater than 100 µM and the GI50 (TK-10 renal) was 1.07 µM. The TGI (TK-10 renal) was 4.3 µM, the GI50 (HCC-2998 colon) was 8.81 µM and the TGI (HCC-2998 colon) was greater than 23.8 µM. For the same compound, the GI50 (NCI-H23 lung) was 2.1 µM, the TGI (NCI-H23 lung) was 14.9 µM and the GI50 (ACHN renal) was 1.49 µM. For the same compound, the TGI (ACHN renal) was 29.8 µM, the GI50 (COLO 205 colon) was 2.66 µM and the TGI (COLO 205 colon) was 8.31 µM. It also gave a GI50 (SF-268 CNS) of 2.86 µM and a TGI (SF-268 CNS) greater than 49.5 µM.

CC/C(=C(/c1ccc(/C=C/C(=O)O)cc1)c1ccc2[nH]ncc2c1)c1ccc(F)cc1Cl showed a GI50 (UO-31 renal) of 11.2 µM, a TGI (UO-31 renal) of 24.7 µM and a GI50 (RPMI-8226 leukemia) of 7.72 µM. The TGI (RPMI-8226 leukemia) was 41 µM, the GI50 (U251 CNS) was 9.44 µM and the TGI (U251 CNS) was 23.5 µM. It also gave a GI50 (MDA-MB-231 breast) of 16.2 µM, a TGI (MDA-MB-231 breast) of 34.6 µM and a GI50 (TK-10 renal) of 15.9 µM. For the same compound, the TGI (TK-10 renal) was 33.4 µM, the GI50 (HCC-2998 colon) was 13.8 µM and the TGI (HCC-2998 colon) was 29.8 µM. For the same compound, the GI50 (NCI-H23 lung) was 15.4 µM, the TGI (NCI-H23 lung) was 37.8 µM and the GI50 (ACHN renal) was 9.16 µM. It also gave a TGI (ACHN renal) of 24.3 µM, a GI50 (COLO 205 colon) of 15.5 µM and a TGI (COLO 205 colon) of 35.3 µM. For the same compound, the GI50 (SF-268 CNS) was 11.9 µM and the TGI (SF-268 CNS) was 27.4 µM.
